Test results from US7557109B2, “Treatment for attention-deficit hyperactivity disorder” (priority 2001, dated 2009).

Assays:
[1] = tested on: C3H mice; assay: Peak procedure (30 second reinforcement interval), C3H mice; assay type: in vivo; conditions: 0.3 to 3.0 mg/kg i.p. (FIG. 8)
Procedure: (§1) The peak procedure is a behavioral model designed to assess an animal's ability to learn an appropriate time period in which to perform a task and a time period in which the animal will be rewarded if the task is performed. The model provides information concerning excitatory and inhibitory components of behavior, as subjects must respond to perform a task when appropriate and stop responding in an “empty trial” when time for reward has elapsed and the reward has not been delivered. The task is sensitive to conditions where there is a failure in inhibitory mechanisms, such as seems to be the case for ADHD (Pliszka et al., Biol. Psychiatry, 48:238-46, 2000).
In the peak procedure, mice are trained to work for food that is delivered at the same time in each trial, but withdrawn in some unreinforced trials. Typically, the response rate increases up to a maximum around the reinforcement time, and then decreases to a low toward the end of the trial. The shape of the response rate indicates whether the animal is sensitive to the time of reinforcement. To be able to perform well in this model, the animals need to be able to learn several tasks. First, the animal must make an association between a response (lever pressing, nose poking or key pecking) and the delivery of reward. Second, the animal must be able to perceive and remember time. Third, the animal must act on its remembered time by starting and then stopping or inhibiting the response. Fourth, the animal must be able to compare the elapsed time in the trials with its remembered time to reinforcement. […] Accuracy is measured by looking at the shape of the response function; therefore, if the response function is sharper and centered on the reinforcement time it supports a conclusion that attentional processes have been heightened.
(§2) Mice were food deprived to 85-90% of their free-feeding body weight by supplementing food earned during experimental sessions with a measured amount after the session had ended. […]

[2] = tested on: coloboma (Cm) mutant mice; assay type: in vivo
Source text: (§3) Heterozygote coloboma mice were originally purchased from The Jackson Laboratory (Bar Harbor, Me.) and were bred and maintained in our colony. In the current study, 20 mutant mice and 25 wild-type littermates, all aged 8 to 10 weeks, were used. Animals were divided into 4 groups: mutant/drug-treatment (n=11), mutant/vehicle-control (n=9), wild-type/drug-treatment (n=13), wild-type/vehicle-control (n=12). Age and gender were balanced among groups. All animals were housed as littermates (2-4 mice per cage) and were maintained on ad libitum food and water with a 12 hr light/dark cycle.
(§4) Open-field testing was performed under normal lighting conditions. Mice were brought into the experimental room and allowed at least 1 hr of acclimatization. Thirty minutes prior to testing, animals received an ip. injection of either d-amphetamine (4 mg/kg), eltoprazine (0.5 mg/kg) or saline. The mice were then placed in the activity monitor arenas (27×27×20 cm, Med Associates). Four animals of matching genotype and treatment were tested at one time. Each testing session lasted 40 minutes, after which animals were returned to their home cages. An automated infrared beam array system measured locomotor activity (total distance traveled) and number of center entries (zone crossings).

[3] = tested on: wild-type mice; assay: Open-field locomotor activity, wild-type littermates; assay type: in vivo
Source text: as §3, §4

[4] = tested on: Cm mutant mice; conditions: Hess et al., 1996; cited from earlier work
[5] = tested on: DA and 5-HT release in dorsal striatum; assay: In vivo microdialysis of DA and 5-HT release in dorsal striatum, wild-type mice
Source text: (§5) Wild-type and 5-HT1B knock out mice were implanted with microdialysis probes according to the methods of DeGroote et al., incorporated herein by reference, with the following modifications. (DeGroote et al., Eur. J. Pharmacol., 439:93-100, 2002). The dialysis probe was placed in the dorsal striatum, at coordinates AP +0.80, ML −1.7 mm from bregma, DV −4.0 mm from the dura, according to the stereotaxic atlas of the mouse brain (Franklin and Paxinos, 1997), and with the toothbar set at 0 mm. Microdialysis experiments were begun 16-20 hours after surgery, using previously described methods, which are incorporated herein by reference (DeGroote et al., 2002). After the start of the dialysis probe perfusion, mice were left undisturbed for three hours. Mice were tested in their home cage during the light period. Samples were collected every 20 minutes in vials containing 7.5 μl acetic acid and stored at −80° C. until HPLC analysis.
Release of DA and 5-HT was measured after peripheral administration of eltoprazine or intrastriatal administration of the selective 5-HT1B receptor agonist CP 93129 dihydrochloride (1,4-Dihydro-3-(1,2,3,6-tetrahydro-4-pyridinyl)-5H-pyrrolo[3,2-b]pyridin-5-one, obtained from Tocris, UK.) Drugs were dissolved in distilled water and further diluted in Ringer solution to the final concentration on the day of the experiment. 5-HT and DA were analyzed by HPLC with electrochemical detection. Samples (25 μl) were injected onto an Inertsil ODS-3 column (3 μM, 2.1×100 mm, Aurora Borealis, The Netherlands) using a Gilson pump and autosampler (Separations, The Netherlands). Separation was performed at 40° C. with the electrochemical detector (Intro, ANTEC Leyden, The Netherlands) set at a potential of 600 mV against an Ag/AgCl reference electrode. The signal was analyzed using Gynkotek software. The mobile phase consisted of 5 g/l (NH4)2SO4, 150 mg/l heptane sulphonic acid sodium salt, 0.5 g/l EDTA, 5% methanol, 30 μl/l triethylamine, 30 μl/l acetic acid, pH 4.6. Flow rate was 0.3 ml/min. The detection limit for 5-HT was 0.5 fmol/25 μl sample (signal to noise ratio 2).
(§6) Values for the first four consecutive microdialysis samples were averaged to calculate the basal levels of extracellular 5-HT and DA, uncorrected for probe recovery. Student's t-tests were used to compare basal 5-HT and DA values between the two genotypes. Effects of drug treatment were analyzed by a repeated multivariate analysis of variance (ANOVA) with time as ‘within’ and treatment (or dose) and genotype as ‘between’ factors.

[6] = tested on: DA and 5-HT release in dorsal striatum; assay: In vivo microdialysis of DA and 5-HT release in dorsal striatum, 1BKO mice; parameters: species or system 5-HT1B knock out mice; conditions: local administration
Source text: as §5
Release of DA and 5-HT was measured after peripheral administration of eltoprazine or intrastriatal administration of the selective 5-HT1B receptor agonist CP 93129 dihydrochloride (1,4-Dihydro-3-(1,2,3,6-tetrahydro-4-pyridinyl)-5H-pyrrolo[3,2-b]pyridin-5-one, obtained from Tocris, UK.) Drugs were dissolved in distilled water and further diluted in Ringer solution to the final concentration on the day of the experiment. 5-HT and DA were analyzed by HPLC with electrochemical detection. Samples (25 μl) were injected onto an Inertsil ODS-3 column (3 μM, 2.1×100 mm, Aurora Borealis, The Netherlands) using a Gilson pump and autosampler (Separations, The Netherlands). […] The signal was analyzed using Gynkotek software. […]
as §6, with “Student's t-tests were used to compare basal 5-HT and DA values between the two genotypes.” left out

[7] = tested on: wild-type mice; assay: DRL-36s schedule after FR5 conditioning, wild-type mice; assay type: in vivo
Procedure: (§7) Experiments were conducted in eight identical mouse operant chambers (16×14×13 cm) with stainless steel grid floors (ENV-307M; Med Associates Inc., Georgia, Vt., USA) housed in sound-insulating and ventilated cubicles. Each chamber was equipped with two ultra-sensitive retractable levers, one on each side of a food cup containing photocells to register nose poke behavior and in which a pellet dispenser delivered 20 mg food pellets (Formula A/I, P.J. Noyes Company Inc., Lancaster, N.H., USA). A red house light (50 lux) was located in the center of the wall opposite to the food cup and levers. Stimulus lights were located above each lever and above the food cup. Experimental sessions were controlled and data were recorded by a computer.
(§8) Mice trained on DRL procedure first received operant conditioning. DRL-36s task was adapted from procedures used in rats (O'Donnell and Seiden, supra). Briefly, mice first learned to respond for food under a DRL 6 sec schedule, which means that mice had to wait at least 6 seconds between successive lever presses in order to obtain a food reward. Subsequently the schedule requirement was increased every session in steps of 6 sec to 36 sec (DRL 36 sec). Each session started with the illumination of the house light, the stimulus light above the food cup and the presentation of the left lever for the duration of the session. […] If the mouse presses too soon, no reinforcement is given, the clock is reset to zero, and a new 36-sec waiting period starts. In this way, the DRL-36s schedule task primarily measures waiting strategies which reflect hyperactivity-impulsivity behaviors associated with ADHD. Animals were trained until performances on the DRL 36 sec schedule had stabilized (approximately 25 sessions). All training sessions lasted 60 min and were conducted 5 days per week from Monday-Friday. The total number of lever presses (responses), the total number of reinforcements, and the inter-response times (IRT) are recorded.
Data were analyzed as described elsewhere (Richards et al., J. Exp. Anal. Behav. 60:361-385, 1993; Sabol et al., Psychopharmacology 121:57-65, 1995). The inter-response time (IRT) analysis included three measures for the characterization of DRL 36 sec IRT distributions: peak area, peak location and burst ratio. Only peak area (PkA) and peak location (PkL) are presented. The PkA measure is the area of the obtained IRT distribution of a mouse above the corresponding negative exponential, a computation based on mean of obtained IRT durations excluding the burst component of IRT<3 sec (see Richards et al., supra, for details). […] Thus, decreases in PkA indicate that the mouse's IRT distribution becomes more similar to random performance indicating loss of schedule control. PkL is calculated as the median of the area of the obtained IRT distribution above the corresponding negative exponential.
Mice were conditioned and challenged on a DRL-36s schedule according to the methods of Example 7, with the following modifications. Because 1BKO mice had difficulty learning the DRL-36s schedule following conditioning on an FR1, wild-type and 1BKO mice were conditioned on a fixed rate 5 (FR5) schedule. In FR5, instead of pressing the lever once for a reward, animals have to press 5 times. The rationale for changing the operant conditioning was that by increasing the number of responses necessary for reinforcement, the wild-type mice should have greater difficulty and the 1BKO (which have higher response rates anyway) should have less difficulty getting reinforcements.

[8] = tested on: C57BL/6J mice; assay: Peak procedure (30 second reinforcement interval), C57BL/6J mice; assay type: in vivo
Procedure: as §1
In the peak procedure, mice are trained to work for food that is delivered at the same time in each trial, but withdrawn in some unreinforced trials. Typically, the response rate increases up to a maximum around the reinforcement time, and then decreases to a low toward the end of the trial. […] Accuracy is measured by looking at the shape of the response function; therefore, if the response function is sharper and centered on the reinforcement time it supports a conclusion that attentional processes have been heightened.
as §2

[9] = tested on: 5-HT1B knockout (1BKO) mice; assay: DRL-36s schedule after FR5 conditioning, 5-HT1B knockout mice; assay type: in vivo
Procedure: as §7, §8
Data were analyzed as described elsewhere (Richards et al., J. Exp. Anal. Behav. 60:361-385, 1993; Sabol et al., Psychopharmacology 121:57-65, 1995). The inter-response time (IRT) analysis included three measures for the characterization of DRL 36 sec IRT distributions: peak area, peak location and burst ratio. Only peak area (PkA) and peak location (PkL) are presented. The PkA measure is the area of the obtained IRT distribution of a mouse above the corresponding negative exponential, a computation based on mean of obtained IRT durations excluding the burst component of IRT<3 sec (see Richards et al., supra, for details). […] PkL is calculated as the median of the area of the obtained IRT distribution above the corresponding negative exponential. […]

CCCOc1ccc2[nH]cc(C3=CCNCC3)c2n1 [CP 94253, reference compound]
timing in the peak procedure [1]: no effect on timing in the peak procedure | distance traveled ([2]; 0.5 mg/kg (FIG. 7)): did not decrease significantly the distance traveled | locomotor activity ([3]; 0.5 mg/kg (FIG. 7)): no effect on the locomotor activity

COC(=O)C(c1ccccc1)C1CCCCN1 (stereo not shown) [methylphenidate]
hyperactivity / locomotor activity in Cm mutant mice [4]: increases locomotor activity in a dose-dependent manner

O=c1ccc2[nH]cc(C3=CCNCC3)c2[nH]1 [CP 93129, 1,4-Dihydro-3-(1,2,3,6-tetrahydro-4-pyridinyl)-5H-pyrrolo[3,2-b]pyridin-5-one, reference compound]
DA release ([5]; 0.5 μM, local administration): unaffected | time for 5-HT release to return toward basal levels after cessation ([5]; 0.5 μM, local administration): ≤ 40 min | 5-HT level as compared to vehicle ([5]; 0.5 μM, local administration through probe): 51±9% | increase in DA levels ([5]; 50 μM, local administration, compared to vehicle): 525±79% | 5-HT release ([6]; 0.5 μM): did not decrease 5-HT release | striatal release of DA ([6]; 0.5 μM): similarly unaffected | increase in DA levels ([6]; 50 μM, compared to vehicle): 527±67%

C[C@H](N)Cc1ccccc1 [d-amphetamine]
hyperactivity / locomotor activity in Cm mutant mice [4]: normalizes the hyperactivity | response rate ([7]; 2 mg/kg i.p.): significantly increased response rate | response rate ([7]; 4 mg/kg i.p., wild-type vs 1BKO): significantly decreased response rate in wild-types compared to 1BKO mice | response rate ([7]; 8 mg/kg i.p.): decreased response rate | number of reinforcements ([7]; 2 and 8 mg/kg i.p. vs vehicle (FIG. 12A)): significantly decreased the number of reinforcements | total distance traveled ([2]; 4 mg/kg i.p., 40 min session, saline 18386±6387 (FIG. 4)): 5966±1938 cm | relative response rate curve in peak trials ([8]; 4 mg/kg, 30 min before session (FIG. 1C)): does not peak as high as the lower dose and the curve is flatter | relative response rate curve in peak trials ([8]; 1 and 2 mg/kg, 30 min before session, relative to saline (FIGS. 1A, 1B)): higher peak in the curve followed by a rapid decrease | number of reinforcements ([9]; 2, 4 or 8 mg/kg i.p. (FIG. 12A)): no significant effect on number of reinforcements | response rate ([9]; 2, 4 or 8 mg/kg i.p. (FIG. 12B)): not statistically significant at any dose | total distance traveled ([3]; 4 mg/kg i.p., 40 min session, saline 3116±338 (FIG. 4)): 11657±2370 cm
